From patent US10029000B2, “Uses of IL-12 in hematopoiesis” (University of Southern California, priority 2003, dated 2018)

B1: IL-23: a heterodimer (p19+p40), which shares the same subunit p40 with IL-12 (protein, UniProt Q9NPF7 20-189; P29460 23-328, looked up)
Interleukin-23 subunit alpha: RAVPGGSSPAWTQCQQLSQKLCTLAWSAHPLVGHMDLREEGDEETTNDVPHIQCGDGCDPQGLRDNSQFCLQRIHQGLIFYEKLLGSDIFTGEPSLLPDSPVGQLHASLLGLSQLLQPEGHHWETQQIPSLSPSQPWQRLLLRFKILRSLQAFVAVAARVFAHGAATLSP
Interleukin-12 subunit beta: IWELKKDVYVVELDWYPDAPGEMVVLTCDTPEEDGITWTLDQSSEVLGSGKTLTIQVKEFGDAGQYTCHKGGEVLSHSLLLLHKKEDGIWSTDILKDQKEPKNKTFLRCEAKNYSGRFTCWWLTTISTDLTFSVKSSRGSSDPQGVTCGAATLSAERVRGDNKEYEYSVECQEDSACPAAEESLPIEVMVDAVHKLKYENYTSSFFIRDIIKPDPPKNLQLKPLKNSRQVEVSWEYPDTWSTPHSYFSLTFCVQVQGKSKREKKDRVFTDKTSATVICRKNASISVRAQDRYYSSSWSEWASVPCS

Tested on: lethally irradiated mice
Test: Radioprotection assay: survival of mice after total body lethal irradiation
Format: in vivo, mice (C57BL/6J)
Settings: cytokine given 1 hour post lethal dose radiation; for Survives: 4-5 mice per group
Procedure: Mice received recombinant murine IL-12 (100 ng/mouse (which is about 5 ug/kg on average), intravenous injection) before (24 hours) or after (1 hour) lethal dose radiation (1000 rad). Mice in control group received equal volume of PBS buffer. Survival rate were analyzed by Kaplan-Meier method and p value was calculated using Log Rank Test.
To determine the minimum effective radioprotective dose of IL-12, different dose of IL-112 were administered to lethally irradiated animals before (24 hours before) or post (within one hour) lethal dose ionizing radiation.
IL-12 was administrated to mice at different doses 24 hours before radiation to determine if there is a dose dependent relationship between the concentration of IL-12 administration and survival from lethal irradiation.
To further explore the relationship of IL-12 hematopoietic rescue effect as it may relate to the time of administration, IL-12 was administrated to lethally irradiated animals at different time before and after the radiation. The following time points were tested: −48, −36, −24, and −12 hours before radiation, or +1, +12, +24, and +36 hours post radiation.
A study was conducted to determine if the radioprotective effect of IL-12 administration is specific and INF- ? independent. […] Also, an assessment was made to determine if there was a synergistic effect between GM-CSF and IL-12.
Mice were provided with acid water for one week before the radioprotection assay. Cytokines, diluted in phosphate buffered saline (PBS), pH 7.4, were intravenously injected into mice before or after total body lethal irradiation (TBI) at the specified times. Control group mice were injected with PBS buffer. For TBI, mice were either exposed twice to ionizing irradiation ( ? -ray from Cesium 137) at 500 rad dose with a 3 hour interval, or one time at a dose of 1000 rad in a Gammacell 40 machine from Atomic Energy of Canada LTD (Kanafa, Ontario, Canada). The ? -ray exposure rate is 1 Gy/min. […] After irradiation, mice were given water containing antibiotics. For the survival curve, the Kaplan-Meier method was used. Each experiment was repeated three or more times.

Molecule	Survival rate (%)	radioprotective effect	Survives
GM-CSF: a cytokine to stimulate G and M cell production	0%	did not show any radioprotective effect	0
IL-18: cytokine that, like IL-12, can induce the release of interferon	0%	no radioprotective effect	0
B1	0%	no radioprotective effect	0
